From patent publication US8586557B2, “Therapy of p53 mutant colon adenocarcinoma, breast cancer and lung cancer” (Peter MacCallum Cancer Institute, priority 2009, dated 2013) come the findings set out here.

Assay type in all cases: cell-based, human
The subject of one series is PML. Nature of the series: Western blot of PML knock-down by shRNA. The text has this: Cell lines in which PML was inducibly knocked-down were generated by co-infection with a lentivirus (pLVTHM) expressing the short hairpin RNA (shRNA) PML target sequence GACCAACAACATCTTCTGC (shPML1; SEQ ID No: 1) or AGATGCAGCTGTATCCAAG (shPML2; SEQ ID No: 2; Tavalai et al.) and a lentivirus expressing a tetracycline repressor (pLV-Ttrkrab-Red). Control cell lines with shLacZ and relevant wobble shPML control sequences GACCAACAATATATTCTGC (w-shPML1; SEQ ID No: 4) and AGATGCAGCTGTATCCAAG (w-shPML2; SEQ ID No: 5) were also generated under the control of a tetracycline repressor. PMLi to target sequence GAGTCGGCCGACTTCTGGT (SEQ ID No: 3; Bruno et al), referred to subsequently as PML3i was transfected into SKBR3 cells using Lipofectamine™ 2000 (Invitrogen Corporation, Carlsbad, Calif. 92008 USA), according to the manufacturer's instructions.
(§1) Western blot analysis and immunoprecipitation assays were carried out as previously described (Louria-Hayon et al.). The antibodies used in this study were: anti-human p53 monoclonal antibodies PAb1801 and D01, anti-phospho-p53 Thr^18 polyclonal antibody (Saito et al.), anti-phospho-p53 Ser^20 polyclonal antibody (Cell Signaling Technology, Beverly, Mass., USA); anti-PML monoclonal antibody (clone PML-97; Sigma Chemical Co., St Louis, Mo., USA), anti-GFP (Roche Applied Science, Mannheim, Germany), HRP-conjugated goat anti-mouse IgG, Envision peroxidase anti-mouse or anti-rabbit (Dako Corp., Glostrup, Denmark). The antibodies anti-p53 goat polyclonal antibody (FL-393, AC), anti-p53 rabbit polyclonal antibody (FL-393, FC) and anti-PML polyclonal rabbit antibody ((H-238) sc-5621) were from Santa Cruz Biotechnology, Santa Cruz, Calif., USA.

Series [1] concerns HT29 cells. In words: Cell cycle analysis by BrdUrd incorporation. The settings on record: for relative number of cells cycling through the S-phase: versus parental line. As for the experimental part:
Cells were plated 2×10^6/10 cm dish and allowed to recover 24 h. BRDU was incorporated (20 μM, 4 h), prior to cell harvest with trypsin-EDTA and fixation in 70% methanol, −20° C. overnight. BRDU detection was undertaken subsequent to sequential rehydration in HCl(2N)/Triton-X(0.5%) then incubation in Boric acid (0.1M), anti-DRDU FITC antibody (BD Biosciences; San Jose, Calif., USA) in PBS/BSA(1%)/Triton-X(0.5%). DNA was labeled using propidium iodide 0.5 mg/ml and incorporation was analyzed using the FACs calibur (BD Biosciences; San Jose, Calif., USA)

The subject of series [2] is HT29 cells. In words: Flow cytometry of live/dead cells by propidium iodide exclusion. As for the experimental part:
(§2) Cells were cultured in the absence or presence of doxycyclin (0.2 μg/ml added every second day) for three days then 25,000 cells were plated (with doxycyclin maintainance in culture for continued shRNA induction) and harvested at selected time points. Cells adherent to the plate were released with trypsin-EDTA and combined with those suspended in the culture supernatant prior to flow cytometric analysis of live cell numbers, as discriminated by propidium iodide exclusion using a cell sorter (FACSCalibur) harnessed to CellQuest software (BD Biosciences; San Jose, Calif., USA).

For series [3], the system named is SW480 cells. The series is described as above. How it is done:
as §2

Series [4] deals with HT29 cells. In words: Colony formation assay. The following applies: HT29, doxycycline-induced PML knockdown for 21 d. How it is done: (§3) Cancer cell lines were plated (700 per well) in 5 cm diameter dishes in the absence or presence of tetracycline (0.2 μg/ml added every second day) for 21 days. At harvest the cells were fixed in ethanol and stained in 0.1% crystal violet.
In series [5] the test system is SW480 cells. In words: Colony formation assay. The following applies: SW840 as printed, doxycycline-induced PML knockdown for 21 d. As for the experimental part: as §3
The subject of a further series is PML transcript. In words: RT-PCR of PML transcript after shRNA knock-down. An excerpt:
(§4) Cellular RNA was isolated by Tri-Reagent (MRC Inc.; Cincinnati, Ohio, USA) using the manufacture's instructions, DNA was removed from the samples using DNase treatment (DNA-free kit, Ambion Applied Biosystems; Foster City, Calif., USA), cDNA was synthesized from the purified RNA using M-MLV Reveres Transcription kit (Promega, Madison, Wis., USA). Primers for ribosomal 18S were forward: […] (SEQ ID No: 6); and reverse: […] (SEQ ID No: 7). Primers for PML were forward: CGCCCTGGATAACGTCTTT (SEQ ID No: 8) and reverse: ACTGTGGCTGCTGTCAAGG (SEQ ID No: 9).

Series [6] deals with HT29 cells. In words: MTT metabolic assay. The settings on record: HT29, 3, 4 and 11 days of doxycycline exposure, compared with control w-shPML1. How it is done:
Cells either untreated or treated with doxycyclin (0.2 μg/ml) to knock down PML were plated 4000 per well in a 96 well plate and allowed to recover for 24 h. 3-(4,5-Dimethylthiazolyl-2)-2,5-diphenyltetrazolium bromide (MTT, […] final concentration) was added to the wells and the experiment was terminated after an additional 4 h incubation, by aspiration of the liquid and addition of 200 μl of DMSO. The absorbance was read at 540 nm, relative to a reference wavelength of 630 nm (Mosmann et al.).

Another series has as its system SKBR3 cells. In words: Trypan blue dye exclusion after Adriamycin exposure. The settings on record: SKBR3, Adriamycin 0.5 μg/mL 24 h. As for the experimental part:
Expression of certain p53 mutants confers cells with some resistance to genotoxic stress (Strano et al.). It was therefore important to define whether PML contributes to this biological effect of mutant p53. To this end PML expression was down regulated in SKBR3 cells and cells were exposed to 0.5 μg/ml Adriamycin for 24 h. The effect on cell survival was determined by Trypan blue dye exclusion. Down regulation of PML reduced the numbers of live cells (FIG. 6A(i)), whereas no significant increase in cell death was identified (FIG. 6A(ii)).

Another series concerns Cyclin B2 promoter. In words: Luciferase reporter assay pCCAAT-B2LUC in SKBR3. The following applies: SKBR3, adriamycin 0.5 μg/ml. As for the experimental part:
(§5) For LacZi-SKBR3 and PML3i-SKBR3, cells (1.5×10^5) were transiently transfected with expression plasmids, reporter constructs, and 0.51 μg of CMV β-galactosidase plasmid (pcDNA3-β-gal vector) as an internal control for transfection efficiency. Precipitates were removed and cells were treated with 0.5 μg/ml ADR for 48 hr. Luciferase activity was assayed on whole-cell extract, as described (Manni et al.). The luciferase values were normalized to β-galactosidase activity and protein content.
(§6) In addition, the effect of PML down-regulation on the transcription of the mutant p53 targets cyclin B2 and Cdc25C, in response to genotoxic stress, was examined in the endogenous mutant p53^175 background of SKBR3 cells. SKBR3 cells were transfected with either PML3i (SEQ ID No: 3) or shp53 (GACTCCAGTGGTAATCTA; SEQ ID No: 10), and luciferase reporter constructs for either Cyclin B2 or Cdc25c. After 24 hours, the cells were exposed to adriamycin (0.5 μg/ml). Down regulation of p53 suppressed the induction of both promoters (FIG. 6B(i) and (ii), respectively). […] The suppression of endogenous cyclin B2 and Cdc25C in response to either p53 or PML down-regulation, under the influence of Adriamycin, was also confirmed at the RNA level by RT-PCR (FIG. 6C).

The next series concerns Cdc25C promoter. In words: Luciferase reporter assay pCCAAT-cdc25CLUC in SKBR3. The following applies: SKBR3, adriamycin 0.5 μg/ml. How it is done: as §5, §6
The test system of a further series is Cdc25C RNA. In words: RT-PCR of endogenous mutant p53 target in SKBR3. The following applies: SKBR3, under Adriamycin.
From the text: as §4, §6

A further series deals with cyclin B2 RNA. In words: RT-PCR of endogenous mutant p53 target in SKBR3. The following applies: SKBR3, under Adriamycin.
From the text: as §4, §6

The next series relates to p53 null H1299 cells. Nature of the series: Cell cycle analysis and flow cytometry. As for the experimental part: (§7) To ascertain the influence of PML levels on the proliferation of HT29 human cancer cells, they were subjected initially to metabolic evaluation using an MTT assay and cell cycle analysis using BrdUrd incorporation. […] This reduction was consistent with the reduced growth rate, but cannot explain the marked difference in cell numbers. It is important to clarify that because the MTT assay involved plating cells of equal number 24 hours in advance of each assay time point, there was continual selection for live cells, which is likely to have masked the accrued effects detected with longer-term plating for the flow cytometric analysis and the colony assay. […] To further substantiate the mutant p53 dependence of cell cycle perturbation induced through PML knockdown, H1299 cells either without, or bearing mutant p53^175, were subjected to cell cycle analysis and flow cytometry (FIG. 10).

Series [7] concerns H1299 cells expressing exogenous mutant p53^175. In words: Cell cycle analysis and flow cytometry. The following applies: H1299 bearing mutant p53^175. As for the experimental part:
as §7

Series [8] relates to p53 Thr18 phosphorylation. Nature of the series: Immunoblot of IR-induced p53 Thr18 phosphorylation in NB4 cells. The settings on record: As2O3 1 μM 4 h, γ-IR 5Gy. How it is done: as §1
The inventors have previously shown that PML facilitates the phosphorylation of wt p53 at Ser^20 by check-point kinase 2 (Chk2; Louria-Hayon et al.) and Thr^18 by CK1 (Alsheich-Bartok et al.). These observations raised the surprising possibility that PML may also facilitate the phosphorylation of mutant p53.

Setting [9] is: HT29, 3 days of doxycyclin induction.
Where [10] appears, read: HT29, 8 days of continuous PML knock down.

Regarding “w-shPML1: wobble shPML control sequence GACCAACAATATATTCTGC [reference compound]”, the “expression of major PML isoforms” value in the series with PML (HT29, doxycycline 72 h) is listed as “failed to reduce PML levels”; with PML (SW480, doxycycline 72 h), “failed to reduce PML levels”. For the same substance, the “relative number of cells cycling through the S-phase” value with HT29 cells [1] (setting [9]) is listed as “comparable”.
For “shPML1: lentivirus-expressed, doxycycline-inducible short hairpin RNA to PML target sequence GACCAACAACATCTTCTGC”, the cell death result with HT29 cells [2] (HT29, 7 or 8 days of PML down regulation) is listed as “modest increase”; with SW480 cells [3] (SW480, 7 or 8 days of PML down regulation), “modest increase”. Besides, the “number of live cells” value in the series on HT29 cells [2] (HT29, 7 or 8 days of doxycyclin exposure) is listed as “significantly reduced”; in the series on SW480 cells [3] (SW480, 7 or 8 days of doxycyclin exposure), “significantly reduced”. For the same substance, the “inhibition of colony formation” value in the series on HT29 cells [4] is given as above 90%; in the series with SW480 cells [5], above 70%. For the same substance, the “expression of major PML isoforms” value in the series with PML (HT29, doxycycline 72 h) is reported as “reduced”; with PML (SW480, doxycycline 72 h), “reduced”. Besides, the PML transcript level result in the series on PML transcript (HT29, RT-PCR normalized to 18 s) is listed as “reduction”; in the series on PML transcript (SW480, RT-PCR normalized to 18 s), “reduction”. Besides, in the series with HT29 cells [6], the “rate of metabolism (MTT)” value is recorded as “slightly lower”. Further, in the series with HT29 cells [1] (setting [9]), the “level of G1” value was “slightly higher”. Further, in the series on HT29 cells [1] (setting [9]), the “level of G2” value is reported as “lower”. Further, the “relative number of cells cycling through the S-phase” value with HT29 cells [1] (setting [9]) was “comparable”. Besides, in the series on HT29 cells [1] (setting [10]), the “BrdUrd incorporation into the S-phase” value is “reduced markedly”. In addition, the G1 result with HT29 cells [1] (setting [10]) was “increases”. Further, the G2 entry in the series with HT29 cells [1] (setting [10]) is “increases”.
Take “PML3i: siRNA to PML target sequence GAGTCGGCCGACTTCTGGT (Bruno et al), transfected with Lipofectamine 2000 (listed as DNA, chemistry not given here)”: in the series with SKBR3 cells, the cell death result was “without significant cell death” and the live cell numbers result is recorded as “slightly reduced”. In addition, the “Cyclin B2 promoter activity (luciferase)” value in the series on Cyclin B2 promoter is recorded as “reduced”. The “Cdc25C promoter activity (luciferase)” value with Cdc25C promoter is given as “reduced”. For the same substance, the “endogenous Cdc25C RNA level” value with Cdc25C RNA is on record as “suppression”. In addition, the “endogenous cyclin B2 RNA level” value in the series on cyclin B2 RNA is “suppression”. Further, the cell cycle profile result with p53 null H1299 cells is reported as “not disrupted”. In series [7], the G2 entry is reported as “striking increase”.
Take arsenic trioxide [As2O3]: the “IR-induced phosphorylation of p53 on Thr18” value in [8] is listed as “facilitated”.
For the substance “shp53: RNA interference construct to p53, GACTCCAGTGGTAATCTA [reference compound]”, the “Cyclin B2 promoter activity (luciferase)” value in the series with Cyclin B2 promoter was “suppressed”. Moreover, in the series on Cdc25C promoter, the “Cdc25C promoter activity (luciferase)” value was “suppressed”. Also, the “endogenous Cdc25C RNA level” value in the series on Cdc25C RNA is given as “suppression”. Further, the “endogenous cyclin B2 RNA level” value with cyclin B2 RNA is listed as “suppression”. The cell cycle profile entry in the series with p53 null H1299 cells is given as “not disrupted”. For the same substance, the G2 result in series [7] was “striking increase”.
